From patent publication US12138236B2, “Compositions comprising N-Acetyl Methyl GABA and related methods” (MBI Distributing, priority 2020, dated 2024)
Where “and” joins values, the source holds several entries; their conditions need not be identical. Equal entries are not always repeated.

Tests used:
[1] = Single human subject's report on overnight sleep after self-administering N-Acetyl Methyl GABA (Example 2); assay type: in vivo; set-up: key to Sleep Quality / Restfulness/Wakefulness / Mental Clarity/Memory / Mood / Anti-inflammatory Action (decrease in pain): 1: Very Poor; 2: Poor; 3: Fair; 4: Good; 5: Excellent
Method: Table 2 reports a human subject's sleep quality, restfulness/wakefulness, mental clarity/memory, mood, and inflammation and pain reduction after 18 overnight sleep periods over the span of 15 weeks (October-January, as shown in Table 2), with 15 of the 18 nights occurring before the first administration of N-Acetyl Methyl GABA to the subject. Table 3 reports the subject's sleep quality and other parameters after self-administering 300 mg of N-Acetyl Methyl GABA before an overnight sleep period, 40 times over the span of 9 weeks (November-January, as shown in Table 3). Data in Tables 2 and 3 are based on a rating of sleep quality and other parameters from 1 to 5, where 1 is Very Poor, 2 is Poor, 3 is Fair, 4 is Good, and 5 is Excellent. Each morning after waking, the subject reported on the sleep quality, restfulness/wakefulness, mental clarity/memory, mood, and inflammation and pain reduction they felt, and/or with regard to sleep quality, used information from a “Sleep Cycle” app on a cell phone (Sleep Cycle, www.sleepcycle.com, Gothenburg, Sweden).
For 14 of the days reported in Table 2, before the first administration of N-Acetyl Methyl GABA, data is from a sleep app on a cell phone device. Other data in Table 2 is from the subject's experience as reported for a given sleep period. The data before first administration of N-Acetyl Methyl GABA provides a baseline of sleep patterns for the subject with no sleep aid. The average sleep quality in the subject before a first administration of N-Acetyl Methyl GABA was 73.8%. The average percentage of sleep quality improved after administration of N-Acetyl Methyl GABA according to this invention, with average sleep quality at 80.4%.

[2] = Daytime study of N-Acetyl Methyl GABA composition without melatonin, 19 subjects (Example 6); assay type: in vivo, human; conditions: one value per patient (1-19), over baseline, 2 teaspoons (8 g) orally once daily, 14 days
Method: The Purpose of this study was to quantify the effectiveness of N-Acetyl Methyl GABA on FAM MS (Fatigue, Anxiety, Mood, Mind, Stress) and related symptoms and qualities. (Mind refers to mental clarity, memory and focus).
Due to the above-described effects of N-Acetyl Methyl GABA on sleep and relaxation, a sleep quality section was added to see how a “daytime” version of N-Acetyl Methyl GABA (administered without melatonin) assisted with sleep quality for daytime patients. This was also beneficial for patients that prefer not to take melatonin.
Study participants: 19 subjects
7 day pre-study symptomology (no N-Acetyl Methyl GABA taken) to record a baseline of patient symptoms.
14 day study symptomology (taking N-Acetyl Methyl GABA) to record patient symptoms.
Preferred subject would have minimum two of the following symptoms prior to study: FAMMS (Fatigue, Anxiety, Mood, Mind, Stress) (Mind defines mental clarity, memory and focus issues), sleep imbalance, insomnia, daytime energy issues.
Subjects were asked to not use any additional mind/body stress relief or natural supplements other than the N-Acetyl Methyl GABA composition (“GabaSorb® Daytime”) during the 14 day study.
Subjects were asked to take 2 teaspoons of the liquid N-Acetyl Methyl GABA composition (Gabasorb Daytime) daily in the morning or early afternoon if they suffered from two or more symptoms listed in the protocol.
The N-Acetyl Methyl GABA composition described in Table 11 was taken orally by each patient once daily.
Subjects were administered 2 teaspoons (8 g) of the liquid N-Acetyl Methyl GABA composition described above.
Ratings were made each day during the study period (7 days pre-administration, 14-days during N-Acetyl Methyl GABA administration), based on a scale of 1 to 5. Improvements are shown by increased ratings over baseline in qualities such as Stress, Anxiety, Mental Clarity and Memory, Mood, Daytime Energy, and Sleep Quality for each patient in Table 12. Patient gender and age for Table 12 are as follows: Patient 1 (P1)[…], P2[…], P3[…]; P4[…], P5[…], P6[…], P7[…], P8[…], P9[…], P10[…], P11[…], P12[…], P13[…], P14:M/22, P15:F/23, P16:M/50, P17:M/19, P18:F/44, P19:F27.

[3] = Administration of N-Acetyl Methyl GABA to other human subjects, subject reports; assay type: in vivo
Method: Subjects report more natural sleep without the morning grogginess associated with many sleep aids. Subjects report they slept all night long without waking. […] Subjects report the mind is clear and the attitude is positive after N-Acetyl Methyl GABA was administered prior to an overnight sleep period. Without being bound by theory, this may be due to anxiolytic effects of N-Acetyl Methyl GABA.

[4] = average of 40 nights, scale 1 to 5, without: 2.2
[5] = daily rating 1 to 5 after overnight sleep, 300 mg before sleep, one subject
[6] = sum of 40 daily ratings, 300 mg

COC(=O)CCCNC(C)=O [N-Acetyl Methyl GABA]
side effects reported by the subject ([1]; 300 mg before overnight sleep, 40 times over 9 weeks): No side effects | Inflammation/pain improved, percent of average score without ([1]; 2.1/1.7*100%): about 125% | Mental clarity/memory improved, percent of average score without ([1]; 2.2/2.2*100%): 100% | Mood improved, percent of average score without ([1]; 2.5/1.9*100%): about 132% | Sleep quality improved, percent of average score without ([1]; 2.5/2.2*100%): approximately 115% | Restfulness/wakefulness improved, percent of average score without ([1]; 2.6/2*100%): 130% | average sleep quality (percentage) ([1]; after administration, before first administration 73.8%, sleep app on cell phone): 80.4% | morning or mid-afternoon anxiety, subject report ([1]; after waking from the sleep periods): no longer feeling morning or mid-afternoon anxiety | Anti-inflammatory Action (decrease in pain), average score with N-Acetyl Methyl GABA ([1]; average of 40 nights, scale 1 to 5, without: 1.7): 3.8 | Mood, average score with N-Acetyl Methyl GABA ([1]; average of 40 nights, scale 1 to 5, without: 1.9): 4.4 | Restfulness/Wakefulness, average score with N-Acetyl Methyl GABA ([1]; average of 40 nights, scale 1 to 5, without: 2): 4.6 | Mental Clarity/Memory, average score with N-Acetyl Methyl GABA [1, 4]: 4.4 | Sleep Quality, average score with N-Acetyl Methyl GABA [1, 4]: 4.7 | Anti-inflammatory Action (decrease in pain) [1, 5]: 3 and 4 and 2 and 5 | Mental Clarity/Memory [1, 5]: 3 and 4 and 5 | Mood [1, 5]: 3 and 4 and 5 | Restfulness/Wakefulness [1, 5]: 3 and 4 and 5 | Sleep Quality ([1]; daily rating 1 to 5 after overnight sleep, 300 mg self-administered before sleep, one subject): 4 and 5 | Anti-inflammatory Action (decrease in pain), Total Score, 40 days [1, 6]: 153 | Mental Clarity/Memory, Total Score, 40 days [1, 6]: 177 | Mood, Total Score, 40 days [1, 6]: 176 | Restfulness/Wakefulness, Total Score, 40 days [1, 6]: 183 | Sleep Quality, Total Score, 40 days [1, 6]: 190 | Anxiety Reduced (%) [2]: 35% and 32% and 22% and 40% (2×) and 46% and 107% and 71% (2×) and 126% and 57% and 56% (2×) and 63% (3×) and 52% and 95% and 89% | Daytime Energy Improved (%) [2]: 40% and 32% and 88% (2×) and 29% and 57% and 74% and 36% and 42% and 23% and 17% and 22% (2×) and 43% and 20% and 11% and 0% and 33% (2×) | Mental Clarity/Memory Improved (%) [2]: 57% and 55% and 72% and 43% and 100% and 82% and 52% and 56% and 131% and 70% and 59% and 23% and 25% and 33% (2×) and 71% and 16% and 30% and 40% | Mood Improved (%) [2]: 20% and 94% and 39% and 68% and 100% (4×) and 120% and 152% and 88% and 129% and 107% and 85% and 65% and 60% and 69% (2×) and 112% | Sleep Quality Improved (%) [2]: 78% (2×) and 95% and 118% and 150% and 233% and 62% (2×) and 77% and 93% and 57% and 81% and 52% (3×) and 75% and 87% and 79% and 56% | Stress Reduced (%) [2]: 48% and 45% and 36% (2×) and 33% and 72% and 17% and 25% and 40% (3×) and 78% and 69% and 27% and 56% and 85% and 41% and 52% and 55% | sleep quality, subjects' report ([3]; administered prior to a sleep period): improved sleep quality | tolerability in other human subjects ([3]; human, in vivo): well tolerated
